The record followed here is patent publication US4539319A (priority 1982, dated 1985).

Where “and” joins values, the source holds several entries; their conditions need not be identical. Equal values may be shown once. Where a name gives a salt, the structure may show the parent alone. Read-outs that look alike come from different tables or passages of the source.

One data set deals with ST from E coli P16. On the set-up: species or system mice. Particulars: mouse, in vivo.
A further data set concerns 8 Bromo cyclic GMP. Further details: species or system mice. The settings on record: mouse, in vivo.
For a further data set, the system named is ST from E coli P155. On the set-up: species or system mice. The settings on record: mouse, in vivo.
In data set [1] the test system is enterotoxin induced secretion. Kind of data set: animal or person. Format: in vivo, mice. Particulars: Mus musculus, po.
Data set [2] deals with enterotoxin (culture filtrate) from enteropathogenic E coli strain P16. Further details: species or system piglets. Particulars: in vivo; hydrochloride.
Another data set deals with E coli B44. Kind of data set: Protection of Neonatal Mice from Lethal Enteropathogenic E coli Infection. Format: in vivo, E coli B44 infection in 4 day old mice. The settings on record: 10 mg/kg b.i.d.; for % mortality in mice dosed with compound: n = 60; for % Reduction in mortality: versus placebo. How it is done: 4 day old mice were orally dosed with 50 μl of phosphate buffered saline containing 1×10^5 organisms/ml of E coli B44. The mice were then dosed b.i.d. with either placebo or drug for four days commencing 16 hours after infection. The animals were left with their mothers throughout the experiment and a daily record of deaths was made. The experiment was terminated when no mortality was seen over a 24 hour period. (Usually 7-10 days after infection). The mortality in the drug group was then compared with the mortality in the placebo group using the following formula:
% Reduction in mortality=[(MP -MD)/MP]× 100
MP =mortality in group having placebo
MD =mortality in group receiving drug
Statistical analysis was performed using 2×2 contingency tables (single tailed `p`).

A further data set has as its system ST from E coli 431. Further details: species or system mice. Particulars: mouse, in vivo.
Data set [3] can be described thus: Determination of Therapeutic Ratios: LD50 in suckling 8 day old mice. Particulars: mouse, in vivo. How it is done: LD50 determinations were made by dosing groups of suckling 8 day old mice with appropriate concentrations orally. Deaths were noted over a 7 day period and LD50s calculated using a probit regression program. ED50 determinations were carried out by dosing groups of 6-8 day old mice with appropriate concentrations orally. The percentage fluid inhibition was determined as above and ED50s calculated using a log/linear regression analysis and the formula given in the British Pharmacopoeia.
For computation of T.R.'s the standard errors of ED50 values were corrected to normalise the errors and the T.R.'s expressed as the ratio (LD50 /ED50) and standard deviation range (Table 3).

On to “4-Methoxy-N,N-di-amylamine-5,6,7,8-tetrahydro-1-naphthamidine, hydrochloride [Example 13]”, for which the % inhibition – broadly, the share of the control response that was lost under treatment – with ST from E coli P16 (hydrochloride) is 38% and 33%.
Still for that read-out and setting: to `COc1ccc(C(=N)N2CCCCC2)c2c1CCCC2.Cl` [Example 10, 1-[Imino(4-methoxy-5,6,7,8-tetrahydro-1-naphthyl)-methyl]piperidine, hydrochloride] belongs 33% and 35%; to `CN(C)C(=N)c1ccc(OCc2ccccc2)c2c1CCCC2` [Example 15, 4-Benzyloxy-N',N'-dimethyl-5,6,7,8-tetrahydro-1-naphthamidine, hydrochloride], 39% and 22%; to `CCCCN(CCCC)C(=N)c1ccc(OCc2ccccc2)c2c1CCCC2` [Example 12, N',N'-Di-n-butyl-4-benzyloxy-5,6,7,8-tetrahydro-1-naphthamidine, hydrochloride], 70% and 52%.
Regarding `CCCCN(CCCC)C(=N)c1ccc(O)c2c1CCCC2` [Example 16, N',N'-di-n-butyl-4-hydroxy-5,6,7,8-tetrahydro-1-naphthamidine hydrochloride], the “% inhibition” value with ST from E coli P16 (hydrochloride) is 58% and 41%.
Consider `CCCCN(CCCC)C(=N)c1ccc(OC)c2c1CCCC2` [Example 11, N',N'-Di-n-butyl-4-methoxy-5,6,7,8-tetrahydro-1-naphthamidine, hydrochloride], for which the “% inhibition” value is 42% with 8 Bromo cyclic GMP; 31% with ST from E coli P155; 59% and 32% in the data set on ST from E coli P16 (hydrochloride); 47% with ST from E coli 431. The “% inhibition (Table 2)” value in the data set with ST from E coli P16 was determined as 59%. Also, the ED50 – broadly, the midpoint of the dose-response relation – in data set [1] was found to be 16 mg/kg. Also, the “Mean scour score during 7 hr observation period ± SEM” value in data set [2] is 2.1 ± 0.3 and 1.2 ± 0.2. Besides, the “% mortality in mice dosed with compound” value in the data set with E coli B44 (day 2 post infection, control 31) is reported as 25%; with E coli B44 (day 3 post infection, control 68, *P < 0.05), 47%; with E coli B44 (day 4 post infection, control 79, **P < 0.01), 53%; with E coli B44 (day 5 post infection, control 84, ***P < 0.001), 57%; with E coli B44 (day 6 post infection, control 84, **P < 0.01) it was 58%; with E coli B44 (day 7 post infection, control 84, **P < 0.01), 58%. In addition, the “% Reduction in mortality” value with E coli B44 (day 2 post infection) came to 18%; in the data set on E coli B44 (day 3 post infection), 31%; in the data set on E coli B44 (day 4 post infection) it was 33%; with E coli B44 (day 5 post infection), 32%; with E coli B44 (day 6 post infection), 30%; with E coli B44 (day 7 post infection), 30%. In addition, the selectivity ratio in data set [3] (po, therapeutic ratio (T.R.), standard errors of ED50 corrected, range (3.9-8.1)) was 5.6. For the same compound, in data set [3] (oral, 8 day old mice, deaths over 7 days, range (83-91)), the LD50 (commonly the dose expected to kill half of the subjects tested) at 168 h turned out to be 87 mg/kg.
For `CCCN(CCC)C(=N)c1ccc(OC)c2c1CCCC2` [Example 9, 4-methoxy-N',N'-di-n-propyl-5,6,7,8-tetrahydro-1-naphthamidine, hydrochloride], the “% inhibition” value in the data set with ST from E coli P16 (hydrochloride) is 43% and 29%.
As to `CCCCN(CCCC)C(=N)c1ccc(OC(C)C)c2c1CCCC2` [Example 14, N',N'-di-n-butyl-4-isopropyloxy-5,6,7,8-tetrahydro-1-naphthamidine, hydrochloride], the “% inhibition” value with ST from E coli P16 is 52%.
